According to PubChem BioAssay (NCI):
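Results reflect a 48-hour exposure of cells in 96-well plates to compound at five concentrations. At the TGI there is no net growth.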

Columns and labels:
Test in all cases: DTP human tumour cell line panel, 48 h
[1] = test system: HL-60(TB) leukemia
[2] = test system: OVCAR-8 ovarian
[3] = test system: SR leukemia
[4] = test system: OVCAR-4 ovarian
[5] = test system: NCI-H460 lung
[6] = test system: SF-539 CNS
[7] = test system: SNB-75 CNS
[8] = test system: CCRF-CEM leukemia
[9] = test system: MOLT-4 leukemia
[10] = test system: A498 renal
[11] = test system: ACHN renal
[12] = test system: A549 NSCLC
[13] = test system: CAKI-1 renal
[14] = test system: NCI-H23 lung
[15] = test system: SK-MEL-5 melanoma
[16] = test system: M14 melanoma
[17] = test system: LOX IMVI melanoma
[18] = test system: SK-OV-3 ovarian
[19] = test system: K-562 leukemia
[20] = test system: HCC-2998 colon

| SMILES | TGI [1] [µM] | TGI [2] [µM] | TGI [3] [µM] | TGI [4] [µM] | TGI [5] [µM] | TGI [6] [µM] | TGI [7] [µM] | TGI [8] [µM] | TGI [9] [µM] | TGI [10] [µM] | TGI [11] [µM] | TGI [12] [µM] | TGI [13] [µM] | TGI [14] [µM] | TGI [15] [µM] | TGI [16] [µM] | TGI [17] [µM] | TGI [18] [µM] | TGI [19] [µM] | TGI [20] [µM] |
| --- | --- | --- | --- | --- | --- | --- | --- | --- | --- | --- | --- | --- | --- | --- | --- | --- | --- | --- | --- | --- |
| Clc1ccc(CCn2cncn2)cc1 | > 100 | > 100 | > 100 | > 100 | > 100 | > 100 | > 100 | > 100 | > 100 | > 100 | > 100 | > 100 | > 100 | > 100 | > 100 | > 100 | > 100 | > 100 | > 100 |  |
| CCOC(=O)c1cc2c3c(c(C(C)=O)c(O)c2[nH]1)N(C(C)=O)CC3 | > 100 | > 100 | > 100 |  | > 100 | > 100 | > 100 | > 100 | > 100 | > 100 | > 100 |  | > 100 | > 100 | > 100 | > 100 | > 100 | > 100 | > 100 |  |
| CCN(CC)C1CCC(C2c3cc4c(cc3OC(N3CCOCC3)C2C)OCO4)CC1 (stereo not given) | 89.8 | > 100 | > 100 | > 100 | > 100 | 57 | > 100 | > 100 | > 68.2 | 60.7 | > 100 | > 100 | > 100 | > 100 | > 55.7 | > 69.3 | > 100 |  | > 100 | 40.3 |
| C#C/C=C\CCCCCCCCCCCCCC/C=C\CCCCC#CC(O)C#CCCCC/C=C\CCCCCC/C=C/C(O)C#C (stereo not given) | 43.6 | > 59.5 | > 60.8 | 26.4 | > 75 | > 75 | > 75 | > 47.5 | > 68 | 74.4 | > 75 | 37.1 | 18.1 | > 42.6 | 17.6 | > 38.3 | 8.75 | > 75 | > 75 | 37 |
| CN(C)CCCSc1nc2c(c(=N)n1-c1ccccc1)c(=S)n(-c1ccccc1)c(=S)n2-c1ccccc1 | 1.75 | 3.2 | 1.07 | 3.42 | 3.24 | 6.95 | 3.05 | 2.41 | 3.28 | 4.89 | 3.22 | 4.58 | 3.16 | 4.45 | 3.79 | 3.76 | 2.87 | 6.86 | 3.81 | 2.82 |
| O=[N+]([O-])c1ccc(Oc2c(Cl)cc(S(=O)(=O)/N=C(\NO)Nc3ccc(Cl)cc3)cc2Cl)c(Cl)c1 | 51.7 | 54.1 | 32.6 | 25.9 | 37.2 | 36.7 |  | 98.4 | 25.6 | 25.9 | 28.2 | 32.1 | 28.3 | 34.5 | 31.3 | 30.1 | 37.8 |  | 35 | 31.2 |
| O=C(O)c1cc2c(cc1CC(Cc1ccc3c(c1)CCCC3)C(=O)O)CCCC2 (stereo not given) | > 100 | > 100 | > 100 | 0.758 | > 100 | > 100 | > 100 | > 100 | > 100 | > 100 | > 100 | > 100 | > 100 | > 100 | > 100 | > 100 | > 100 | > 100 | > 100 | > 100 |
| COC(=O)C1=C(OC(=O)c2ccccc2)C(C(=O)OC)[C@@]2(O)[C@@H](C(=O)OC)[C@H](C)C[C@@H]1[C@@H]2C(=O)OC (stereo not given in full) | > 100 | > 100 | > 100 | > 100 | > 100 | 34.5 | > 100 | > 100 | > 100 | 94.5 | > 100 | 71.6 | > 100 | > 100 | > 100 | > 100 | > 100 | > 100 |  | 89.7 |
| O=C1C=CC(=O)c2c1ccc1c3ccccc3n(-c3ccccc3)c21 | 2.34 | 11 | 1.31 | 27.2 | 34.6 | 29.7 | 40.2 | 1.94 | 2.89 | 35.2 | 11.1 | 44.2 | 19.6 | 34.1 | 31.2 | 21.2 | 20.1 | 39.3 | 5.08 | 50.6 |
| N#Cc1ccc(CSC2=C(c3ccc(Cl)cc3)S/C(=C3\SC(SCc4ccc(C#N)cc4)=C(c4ccc(Cl)cc4)S3)S2)cc1 | > 100 | > 100 | > 100 | > 100 | > 100 | > 100 |  | > 100 | > 100 | > 100 | > 100 | > 100 | > 100 | > 100 | > 100 | > 100 | > 100 | > 100 | > 100 | > 100 |
| CCC1CCN=C(NS(=O)(=O)c2cc(C)c(Cl)cc2S)N1 (stereo not given) | 82.5 | 44.6 | > 100 | > 100 | > 100 | > 100 | > 100 | 88.1 | 71.6 | > 100 | > 100 | > 100 | > 100 |  | > 100 | > 100 | 53.2 | > 100 | > 100 | > 100 |
| Cc1cc(C)c(O)c(CN2CCN(C(C)C)CCN(C(C)C)CC2)c1 | 71 | 94.9 | 64 | > 100 | > 100 | 30.8 | > 100 | 83.9 | 47.3 | > 100 | > 100 | > 100 | > 100 |  |  | 26.2 | 42.6 |  | > 100 | 40.8 |
| CC(=O)Oc1ccc2cc(Oc3ccc(Cl)c(Cl)c3)c(=O)oc2c1 | > 100 | 69.5 | > 100 | > 100 | 66 | 46.8 | > 100 | > 100 | > 100 | 65.8 | 72.6 | 94.8 | 58.7 | > 100 | 35.5 | > 100 | 59.1 |  | 69.6 | 39.6 |
| CC(Oc1ccccc1Cl)C(=O)NN1C(=O)CC(=O)NC1=S (stereo not given) | > 100 | > 100 | > 100 | > 100 | > 100 | > 100 | > 100 |  | > 100 | > 100 | > 100 | > 100 | > 100 | > 100 | > 100 | > 100 | > 100 | > 100 | > 100 | > 100 |
| CC1=NC2c3c(-c4ccc(Cl)cc4)cn(-c4ccc(C)cc4)c3N=CN2N1 (stereo not given) | > 100 | > 100 | > 100 | 33.3 | > 100 | > 100 | 97.9 | > 100 |  | > 100 | > 100 | > 100 | > 100 | > 100 | > 100 | > 100 | > 100 | > 100 | > 100 | > 100 |
| CC(C)(C)OC(=O)NC(Cc1ccc(O)cn1)C(=O)O (stereo not given) | > 100 | > 100 | > 100 | > 100 | > 100 | > 100 | > 100 |  | > 100 | > 100 | > 100 | > 100 | > 100 | > 100 | > 100 |  | > 100 |  | > 100 | > 100 |
| Nc1ccc(Oc2ccc(C3(c4ccc(Oc5ccc(N)cc5)cc4)C4CC5CC(C4)CC3C5)cc2)cc1 | 44.3 | > 48.9 | 20.3 | > 74 | > 100 | > 66.2 | > 100 | 35.8 | > 100 | 9.36 | > 62.9 | 42.2 | > 83.4 | > 48.3 | > 100 | 17 | > 28.4 |  | > 100 |  |
| CN(C)CCCNc1ncnc2c1ncn2C1OC(CO)C(O)C1O (stereo not given) | > 100 | > 100 | > 100 | > 100 | > 100 | > 100 |  | > 100 | > 100 | > 100 | > 100 | > 100 | > 100 | > 100 | > 100 | > 100 | > 100 | > 100 | > 100 | > 100 |
| COC(=O)C1=COC(OC2OC(CO)C(O)C(O)C2O)C2C3CN4CCc5c([nH]c6ccccc56)C4(CC12)O3 (stereo not given) | > 100 | > 100 | > 100 | > 100 | > 100 | > 100 | > 100 |  | > 100 | > 100 | > 100 | > 100 | > 100 | > 100 | > 100 | > 100 | > 100 | > 100 | > 100 |  |
| COc1ccc(OC)c(C2CCc3c(cnc4nc(N)nc(N)c34)C2)c1 (stereo not given) | 25.9 | 21.6 | 20.4 | 23.5 | 21.6 | 89.1 |  |  | 22 | 27.4 | 17.2 | 15 | 29.1 |  | 33.4 | 17.3 | 15.5 | 31.2 | 16.1 | 44.6 |
| CC(=O)OCC1OC(n2c3c(cc(C#N)c2=S)CCC3)C(OC(C)=O)C(OC(C)=O)C1OC(C)=O (stereo not given) | > 100 | > 100 | > 100 | > 100 | > 100 | > 100 | > 100 | > 100 | > 100 | > 100 | > 100 | > 100 | > 100 | > 100 | > 100 | > 100 | > 100 |  | > 100 | > 100 |
| O=C(NNC1=NCCCCN1)Nc1ccc(Cl)cc1 | > 100 | > 100 | > 100 | > 100 | > 100 | > 100 | > 100 | > 100 | 72.4 | > 100 | > 100 | > 100 | > 100 | > 100 | > 100 |  | > 100 | > 100 | > 100 | > 100 |
| O=c1[nH]nc(Cc2ccccc2)n1CCCl | > 100 | > 100 | > 100 | > 100 | > 100 | > 100 | > 100 | > 100 | > 100 | > 100 |  |  | > 100 | > 100 |  | > 100 | > 100 | > 100 | > 100 | > 100 |
| O=c1cc(CSc2c(-c3ccccc3)c(=O)n(-c3ccccc3)c(=S)n2-c2ccccc2)[nH]c(=O)[nH]1 | > 100 | > 100 | > 100 |  | > 100 | > 100 | > 100 | > 100 | > 100 | > 100 | > 100 | > 100 | > 100 |  | > 100 | > 100 |  | > 100 | > 100 | > 100 |
